Results published in patent publication US12209081B2 (Katholieke Universiteit Leuven, priority 2020, dated 2025).

These compounds were tested against mouse TRPM3α2 (mTRPM3) ion channel (Mus musculus (Mouse), UniProt J9SQF3) (assay: TRPM3 ion channel driven Ca2+ uptake, Fluo-4 AM assay, mTRPM3alpha2 overexpressing flip-in HEK293 cells stimulated with pregnenolone sulfate). Settings: PS (50 μM) stimulated, cpd 001-199.
Format: cell-based
Procedure, shortened: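 Read-out is Ca2+ influx via Fluo-4 AM fluorescence at 485/535 nm, taken right after seeding ~2000 cells/well onto compound with 50 μM PS. Inhibition computed from RFU between vehicle-stimulated and positive-control-inhibitor wells; cells were mTRPM3α2-overexpressing flip-in HEK293.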

mouse TRPM3α2 (mTRPM3) ion channel, sequence (J9SQF3 other isoform, or with tags, fused parts or gaps): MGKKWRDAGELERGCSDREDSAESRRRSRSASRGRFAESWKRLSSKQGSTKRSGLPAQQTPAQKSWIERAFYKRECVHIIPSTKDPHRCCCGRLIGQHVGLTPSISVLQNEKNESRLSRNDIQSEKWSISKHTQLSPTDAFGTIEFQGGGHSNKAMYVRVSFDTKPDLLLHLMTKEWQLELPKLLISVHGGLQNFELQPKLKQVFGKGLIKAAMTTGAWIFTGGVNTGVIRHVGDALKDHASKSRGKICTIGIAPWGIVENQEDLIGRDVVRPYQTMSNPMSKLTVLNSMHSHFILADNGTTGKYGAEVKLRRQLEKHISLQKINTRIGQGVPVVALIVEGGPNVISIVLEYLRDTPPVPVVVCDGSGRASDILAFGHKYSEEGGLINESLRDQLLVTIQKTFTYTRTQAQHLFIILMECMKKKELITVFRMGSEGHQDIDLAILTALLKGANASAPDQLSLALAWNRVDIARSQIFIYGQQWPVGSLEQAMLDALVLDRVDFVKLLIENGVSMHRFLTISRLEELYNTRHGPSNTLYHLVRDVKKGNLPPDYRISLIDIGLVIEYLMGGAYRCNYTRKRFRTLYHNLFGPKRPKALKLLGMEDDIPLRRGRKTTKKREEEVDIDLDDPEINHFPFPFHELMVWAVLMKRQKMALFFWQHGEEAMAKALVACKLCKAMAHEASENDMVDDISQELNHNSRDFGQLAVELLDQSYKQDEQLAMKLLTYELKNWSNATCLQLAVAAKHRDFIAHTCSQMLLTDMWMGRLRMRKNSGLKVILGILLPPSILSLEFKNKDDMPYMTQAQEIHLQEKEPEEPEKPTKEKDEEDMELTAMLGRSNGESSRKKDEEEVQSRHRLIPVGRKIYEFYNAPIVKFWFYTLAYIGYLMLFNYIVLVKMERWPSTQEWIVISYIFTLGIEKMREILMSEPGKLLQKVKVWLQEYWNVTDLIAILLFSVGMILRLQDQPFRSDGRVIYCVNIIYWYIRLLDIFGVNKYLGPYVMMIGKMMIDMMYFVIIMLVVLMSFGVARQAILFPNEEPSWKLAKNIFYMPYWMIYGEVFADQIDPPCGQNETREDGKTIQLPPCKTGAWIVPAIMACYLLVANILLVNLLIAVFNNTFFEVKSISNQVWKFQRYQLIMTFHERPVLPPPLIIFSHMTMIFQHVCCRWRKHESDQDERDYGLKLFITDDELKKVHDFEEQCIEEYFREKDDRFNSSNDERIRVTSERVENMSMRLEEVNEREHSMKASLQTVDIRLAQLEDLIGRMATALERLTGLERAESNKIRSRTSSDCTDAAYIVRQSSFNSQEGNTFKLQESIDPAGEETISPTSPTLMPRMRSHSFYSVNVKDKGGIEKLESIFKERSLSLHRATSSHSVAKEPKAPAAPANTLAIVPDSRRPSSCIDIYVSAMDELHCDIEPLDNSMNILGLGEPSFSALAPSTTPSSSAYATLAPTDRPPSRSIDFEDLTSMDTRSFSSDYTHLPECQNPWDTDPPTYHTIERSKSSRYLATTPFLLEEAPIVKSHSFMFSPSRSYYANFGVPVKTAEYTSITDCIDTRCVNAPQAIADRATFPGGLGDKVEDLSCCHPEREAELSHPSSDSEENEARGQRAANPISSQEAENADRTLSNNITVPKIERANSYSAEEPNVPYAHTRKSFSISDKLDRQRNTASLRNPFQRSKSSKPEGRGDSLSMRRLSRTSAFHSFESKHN

IC50	SMILES
> 20 µM	Cc1oc2ccc(OCc3nc(C(F)(F)F)cs3)cc2c1C(=O)NC1CCOC1 (centres unmarked) [compound 057, 2-methyl-N-(tetrahydrofuran-3-yl)-5-((4-(trifluoromethyl)thiazol-2-yl)methoxy)benzofuran-3-carboxamide]
< 1 µM	COc1ncccc1COc1ccc2oc(C)c(C(=O)NC3(CO)CCOCC3)c2c1 [compound 058, N-(4-(hydroxymethyl)tetrahydro-2H-pyran-4-yl)-5-((2-methoxypyridin-3-yl)methoxy)-2-methyl-benzofuran-3-carboxamide]
> 20 µM	Cc1oc2ccc(OCc3ccc4cnccc4c3)cc2c1C(=O)NC1CCN(C)CC1 [compound 061, 5-(isoquinolin-6-ylmethoxy)-2-methyl-N-(1-methylpiperidin-4-yl)benzofuran-3-carboxamide]
< 1 µM	Cc1oc2ccc(OCc3cccnc3C(F)(F)F)cc2c1C(=O)NC1CCNC1=O (centres unmarked) [compound 064, 2-methyl-N-(2-oxopyrrolidin-3-yl)-5-((2-(trifluoromethyl)pyridin-3-yl)methoxy)benzofuran-3-carboxamide]
< 1 µM	Cc1oc2ccc(OCc3cccnc3Cl)cc2c1C(=O)NC1CCNCC1(F)F (centres unmarked) [compound 067, 5-((2-chloropyridin-3-yl)methoxy)-N-(3,3-difluoropiperidin-4-yl)-2-methylbenzofuran-3-carboxamide]
< 1 µM	Cc1oc2ccc(OCc3cnccc3Cl)cc2c1C(=O)NC1CCNCC1(F)F (centres unmarked) [compound 068, 5-((4-chloropyridin-3-yl)methoxy)-N-(3,3-difluoropiperidin-4-yl)-2-methylbenzofuran-3-carboxamide]
< 1 µM	Cc1oc2ccc(OCc3ccc4nccn4c3)cc2c1C(=O)NC1CCNCC1(F)F (centres unmarked) [compound 070, N-(3,3-difluoropiperidin-4-yl)-5-(imidazo[1,2-a]pyridin-6-ylmethoxy)-2-methylbenzofuran-3-carboxamide]
< 1 µM	Cc1oc2ccc(OCc3cccc(N(C)C)n3)cc2c1C(=O)NC1CCNCC1(F)F (centres unmarked) [compound 071, N-(3,3-difluoropiperidin-4-yl)-5-((6-(dimethylamino)pyridin-2-yl)methoxy)-2-methylbenzofuran-3-carboxamide]
< 1 µM	Cc1oc2ccc(OCc3cccnc3C(F)(F)F)cc2c1C(=O)NC1(CO)CCOCC1 [compound 072, N-(4-(hydroxymethyl)tetrahydro-2H-pyran-4-yl)-2-methyl-5-((2-(trifluoromethyl)pyridin-3-yl) -methoxy)benzofuran-3-carboxamide]
> 20 µM	Cc1oc2ccc(OCc3cncc(C(F)(F)F)c3)cc2c1C(=O)NC1CCNCC1(F)F (centres unmarked) [compound 075, N-(3,3-difluoropiperidin-4-yl)-2-methyl-5-((5-(trifluoromethyl)pyridin-3-yl)methoxy)benzofuran-3-carboxamide]
> 20 µM	Cc1oc2ccc(OCc3cncc(C(F)(F)F)c3)cc2c1C(=O)N[C@H]1CCN(C(=O)OC(C)(C)C)C1 [compound 077, tert-butyl (S)-3-(2-methyl-5-((5-(trifluoromethyl)pyridin-3-yl)methoxy)benzofuran-3-carboxamido)pyrrolidine-1-carboxylate]
< 1 µM	Cc1ncsc1COc1ccc2oc(C)c(C(=O)NC(C)(C)CO)c2c1 [compound 104, N-(1-hydroxy-2-methylpropan-2-yl)-2-methyl-5-((4-methylthiazol-5-yl)methoxy)benzofuran-3-carboxamide]
< 1 µM	Cc1ncsc1COc1ccc2oc(C)c(C(=O)NC3(CO)CCC3)c2c1 [compound 107, N-(1-(hydroxymethyl)cyclobutyl)-2-methyl-5-((4-methylthiazol-5-yl)methoxy)benzofuran-3-carboxamide]
< 1 µM	Cc1ncsc1COc1ccc2oc(C)c(C(=O)NC3(CN(C)C)CCC3)c2c1 [compound 108, N-(1-((dimethylamino)methyl)cyclobutyl)-2-methyl-5-((4-methylthiazol-5-yl)methoxy)benzofuran-3-carboxamide]
< 1 µM	Cc1oc2ccc(OCc3cccnc3C(F)(F)F)cc2c1C(=O)NC(C)(C)CO [compound 109, N-(1-hydroxy-2-methylpropan-2-yl)-2-methyl-5-((2-(trifluoromethyl)pyridin-3-yl)methoxy)benzofuran-3-carboxamide]
< 1 µM	Cc1ncsc1COc1ccc2oc(C)c(C(=O)NC3(CCO)CCC3)c2c1 [compound 114, N-(1-(2-hydroxyethyl)cyclobutyl)-2-methyl-5-((4-methylthiazol-5-yl)methoxy)benzofuran-3-carboxamide]
< 1 µM	Cc1oc2ccc(OCc3cccnc3C(F)(F)F)cc2c1C(=O)NC1(CO)CCC1 [compound 117, N-(1-(hydroxymethyl)cyclobutyl)-2-methyl-5-((2-(trifluoromethyl)pyridin-3-yl)methoxy)benzofuran-3-carboxamide]
< 1 µM	Cc1ncsc1COc1ccc2oc(C)c(C(=O)NC3(C(N)=O)COC3)c2c1 [compound 119, N-(3-carbamoyloxetan-3-yl)-2-methyl-5-((4-methylthiazol-5-yl)methoxy)benzofuran-3-carboxamide]

IC50	SMILES
< 1 µM	Cc1oc2ccc(OCc3cccnc3C(F)(F)F)cc2c1C(=O)NC1(CCO)CCC1 [compound 127, N-(1-(2-hydroxyethyl)cyclobutyl)-2-methyl-5-((2-(trifluoromethyl)pyridin-3-yl)methoxy)benzo-furan-3-carboxamide]
< 1 µM	Cc1ncsc1COc1ccc2oc(C)c(C(=O)NC3(CCO)COC3)c2c1 [compound 128, N-(3-(2-hydroxyethyl)oxetan-3-yl)-2-methyl-5-((4-methylthiazol-5-yl)methoxy)benzofuran-3-carboxamide]
< 1 µM	Cc1oc2ccc(OCc3cccnc3C(F)(F)F)cc2c1C(=O)NC1(CCO)COC1 [compound 129, N-(3-(2-hydroxyethyl)oxetan-3-yl)-2-methyl-5-((2-(trifluoromethyl)pyridin-3-yl)methoxy) -benzofuran-3-carboxamide]
< 1 µM	Cc1oc2ccc(OCc3cccnc3C(F)(F)F)cc2c1C(=O)NC1(CN)CCC1 [compound 136, N-(1-(aminomethyl)cyclobutyl)-2-methyl-5-((2-(trifluoromethyl)pyridin-3-yl)methoxy)benzofuran-3-carboxamide]
< 1 µM	Cc1ncsc1COc1ccc2oc(C)c(C(=O)NC3(CO)CC3)c2c1 [compound 139, N-(1-(hydroxymethyl)cyclopropyl)-2-methyl-5-((4-methylthiazol-5-yl)methoxy)benzofuran-3-carboxamide]
< 1 µM	Cc1oc2ccc(OCc3cccnc3C(F)(F)F)cc2c1C(=O)NC1(CN(C)C)CCC1 [compound 140, N-(1-((dimethylamino)methyl)cyclobutyl)-2-methyl-5-((2-(trifluoromethyl)pyridin-3-yl)methoxy) -benzofuran-3-carboxamide]
< 1 µM	Cc1ncsc1COc1ccc2oc(C)c(C(=O)NC3(CO)COC3)c2c1 [compound 142, N-(3-(hydroxymethyl)oxetan-3-yl)-2-methyl-5-((4-methylthiazol-5-yl)methoxy)benzofuran-3-carboxamide]
< 1 µM	Cc1oc2ccc(OCc3cccnc3C(F)(F)F)cc2c1C(=O)Nc1cnn(C)c1 [compound 143, 2-methyl-N-(1-methyl-1H-pyrazol-4-yl)-5-((2-(trifluoromethyl)pyridin-3-yl)methoxy)benzofuran-3-carboxamide]
< 1 µM	Cc1ncsc1COc1ccc2oc(C)c(C(=O)Nc3cc[nH]n3)c2c1 [compound 144, 2-methyl-5-((4-methylthiazol-5-yl)methoxy)-N-(1H-pyrazol-3-yl)benzofuran-3-carboxamide]
< 1 µM	Cc1ncsc1COc1ccc2oc(C)c(C(=O)NC3(CNCC(F)(F)F)CCC3)c2c1 [compound 145, 2-methyl-5-((4-methylthiazol-5-yl)methoxy)-N-(1-(((2,2,2-trifluoroethyl)amino)methyl)cyclobutyl) -benzofuran-3-carboxamide]
< 1 µM	Cc1oc2ccc(OCc3cccnc3C(F)(F)F)cc2c1C(=O)Nc1ccn(C)n1 [compound 146, 2-methyl-N-(1-methyl-1H-pyrazol-3-yl)-5-((2-(trifluoromethyl)pyridin-3-yl)methoxy)benzofuran-3-carboxamide]
< 1 µM	Cc1ncsc1COc1ccc2oc(C)c(C(=O)Nc3cn[nH]c3)c2c1 [compound 150, 2-methyl-5-((4-methylthiazol-5-yl)methoxy)-N-(1H-pyrazol-4-yl)benzofuran-3-carboxamide]
< 1 µM	Cc1ncsc1COc1ccc2oc(C)c(C(=O)Nc3cnn(C)c3)c2c1 [compound 152, 2-methyl-N-(1-methyl-1H-pyrazol-4-yl)-5-((4-methylthiazol-5-yl)methoxy)benzofuran-3-carboxamide]
< 1 µM	Cc1oc2ccc(OCc3cccnc3C(F)(F)F)cc2c1C(=O)NC1(CNCC(F)(F)F)CCC1 [compound 153, 2-methyl-N-(1-(((2,2,2-trifluoroethyl)amino)methyl)cyclobutyl)-5-((2-(trifluoromethyl)pyridin-3-yl)methoxy)benzofuran-3-carboxamide]
< 1 µM	Cc1oc2ccc(OCc3cccnc3C(F)(F)F)cc2c1C(=O)Nc1ccnn1C [compound 154, 2-methyl-N-(1-methyl-1H-pyrazol-5-yl)-5-((2-(trifluoromethyl)pyridin-3-yl)methoxy)benzofuran-3-carboxamide]
< 1 µM	Cc1ncsc1COc1ccc2oc(C)c(C(=O)NC3CC4(COC4)C3)c2c1 [compound 156, 2-methyl-5-((4-methylthiazol-5-yl)methoxy)-N-(2-oxaspiro[3,3]heptan-6-yl)benzofuran-3-carboxamide]
< 1 µM	Cc1oc2ccc(OCc3cccnc3C(F)(F)F)cc2c1C(=O)Nc1cn[nH]c1 [compound 158, 2-methyl-N-(1H-pyrazol-4-yl)-5-((2-(trifluoromethyl)pyridin-3-yl)methoxy)benzofuran-3-carboxamide]
